Measurements from ChEMBL document CHEMBL1134426, “Derivatives of 17-(2-methylallyl)-substituted noroxymorphone: variation of the delta address and its effects on affinity and selectivity for the delta opioid receptor” (Bioorg Med Chem Lett, 2001).
pKi: −log10 of the molar value.

How the values were obtained:
[1] = molecular target: Delta-type opioid receptor (Homo sapiens, UniProt P41143); assay: Displacement of [3H]DADLE from Opioid receptor delta 1
Mu-type opioid receptor = Mu-type opioid receptor (Homo sapiens, UniProt P35372); assay: Displacement of [3H]DAMGO from Opioid receptor mu 1
Sequence of Mu-type opioid receptor (P35372 whole entry): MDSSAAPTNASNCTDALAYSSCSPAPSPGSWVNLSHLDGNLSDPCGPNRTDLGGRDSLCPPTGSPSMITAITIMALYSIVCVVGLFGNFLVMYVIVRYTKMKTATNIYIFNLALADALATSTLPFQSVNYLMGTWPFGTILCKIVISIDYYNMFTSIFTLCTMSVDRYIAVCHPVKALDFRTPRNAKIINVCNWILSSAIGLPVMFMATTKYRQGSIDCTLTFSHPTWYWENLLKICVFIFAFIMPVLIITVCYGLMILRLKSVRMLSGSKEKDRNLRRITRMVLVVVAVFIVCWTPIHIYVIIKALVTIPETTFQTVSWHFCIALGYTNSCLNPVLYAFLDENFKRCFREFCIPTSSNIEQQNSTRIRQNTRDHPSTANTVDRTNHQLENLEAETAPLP

[2] = molecular target: Kappa-type opioid receptor (Homo sapiens, UniProt P41145); assay: Displacement of [3H]U-69593 from Opioid receptor kappa 1
Sequence of Kappa-type opioid receptor (P41145 whole entry): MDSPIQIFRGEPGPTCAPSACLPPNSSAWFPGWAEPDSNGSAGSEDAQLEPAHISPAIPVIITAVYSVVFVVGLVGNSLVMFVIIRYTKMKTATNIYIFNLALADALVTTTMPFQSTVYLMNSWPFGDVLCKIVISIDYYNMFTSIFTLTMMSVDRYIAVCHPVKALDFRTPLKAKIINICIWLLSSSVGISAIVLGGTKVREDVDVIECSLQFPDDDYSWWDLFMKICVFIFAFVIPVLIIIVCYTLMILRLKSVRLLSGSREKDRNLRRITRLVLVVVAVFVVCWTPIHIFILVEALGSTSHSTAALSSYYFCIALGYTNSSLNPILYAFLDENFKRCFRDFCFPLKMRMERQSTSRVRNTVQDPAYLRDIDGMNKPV

[3] = molecular target: Opioid receptors; delta & kappa (Homo sapiens) (UniProt P41145+P41143); assay: Selectivity ratio for kappa and delta opioid receptor binding; assay type: protein assay
Sequence of Opioid receptors; delta & kappa (Homo sapiens) (P41143 whole entry, looked up): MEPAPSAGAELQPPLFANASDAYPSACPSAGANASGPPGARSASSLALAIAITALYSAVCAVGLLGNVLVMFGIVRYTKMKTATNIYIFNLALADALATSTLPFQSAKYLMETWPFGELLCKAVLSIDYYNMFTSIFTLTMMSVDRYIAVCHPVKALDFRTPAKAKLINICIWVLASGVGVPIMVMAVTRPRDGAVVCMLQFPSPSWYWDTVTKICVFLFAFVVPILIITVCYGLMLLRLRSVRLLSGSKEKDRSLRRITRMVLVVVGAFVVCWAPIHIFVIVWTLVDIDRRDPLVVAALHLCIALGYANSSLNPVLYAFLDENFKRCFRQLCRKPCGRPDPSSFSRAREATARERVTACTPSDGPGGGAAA
Sequence of Opioid receptors; delta & kappa (Homo sapiens) (P41145 whole entry, looked up): as the sequence (P41145 whole entry) above

[4] = molecular target: Opioid receptors; mu & delta (Homo sapiens) (UniProt P41143+P35372); assay: Selectivity ratio for mu and delta opioid receptor binding; assay type: protein assay
Sequence of Opioid receptors; mu & delta (Homo sapiens) (P35372 whole entry, looked up): as the sequence (P35372 whole entry) above
Sequence of Opioid receptors; mu & delta (Homo sapiens) (P41143 whole entry, looked up): as the sequence (P41143 whole entry, looked up) above

Sequence of Delta-type opioid receptor (P41143 whole entry): as the sequence (P41143 whole entry, looked up) above

Row | Structure (SMILES) | pKi [1] | pKi (Mu-type opioid receptor) | pKi [2] | Selectivity ratio [3] | Selectivity ratio [4]
1 | C=C(C)CN1CCC23c4c5ccc(OC)c4O[C@H]2C(=O)C2(Cc4ccccc4C2)C[C@@]3(O)C1C5 (stereo partly drawn) | < 5.14 | < 5.22 | < 5.15 |  | 
2 | C=C(C)CN1CCC23c4c5ccc(O)c4O[C@H]2c2ncc(-c4ccc(Cl)cc4)cc2C[C@@]3(O)C1C5 (stereo partly drawn) | 7.80 | < 5.22 | 6.52 | 19 | > 380
3 | C=C(C)CN1CCC23c4c5ccc(OC)c4O[C@H]2c2n[nH]cc2C[C@@]3(O)C1C5 (stereo partly drawn) |  |  |  | 1 | > 2
4 | C=C(C)CN1CCC23c4c5ccc(OC)c4O[C@H]2c2[nH]ncc2C[C@@]3(O)C1C5 (stereo partly drawn) | 5.62 | < 5.22 | 5.51 |  | 
5 | C=C(C)CN1CCC23c4c5ccc(O)c4O[C@H]2c2n[nH]cc2C[C@@]3(O)C1C5 (stereo partly drawn) |  |  |  | 1 | 4
6 | C=C(C)CN1CCC23c4c5ccc(O)c4O[C@H]2c2oc4ccccc4c2C[C@@]3(O)C1C5 (stereo partly drawn) | 8.09 | 5.89 | 6.24 | 71 | 160
7 | C=C(C)CN1CCC23c4c5ccc(O)c4O[C@H]2c2[nH]ncc2C[C@@]3(O)C1C5 (stereo partly drawn) | 7.40 | 6.85 | 7.42 |  | 
8 | C=C(C)CN1CCC23c4c5ccc(O)c4O[C@H]2C(=O)C2(Cc4ccccc4C2)C[C@@]3(O)C1C5 (stereo partly drawn) | 7.39 | 5.70 | 6.00 | 24 | 49
9 | C=C(C)CN1CCC23c4c5ccc(OC)c4O[C@H]2c2[nH]c4ccccc4c2C[C@@]3(O)C1C5 (stereo partly drawn) | 6.30 | < 5.22 | < 4.85 | > 28 | > 12
10 | C=C(C)CN1CCC23c4c5ccc(OC)c4O[C@H]2C(=O)/C(=C/c2ccccc2)C[C@@]3(O)C1C5 (stereo partly drawn) | 5.47 | < 5.22 | < 5.15 | > 2 | > 1
11 | C=C(C)CN1CCC23c4c5ccc(O)c4O[C@H]2c2[nH]c4ccccc4c2C[C@@]3(O)C1C5 (stereo partly drawn) | 8.33 | 5.10 | 5.42 | 810 | 1700
12 | C=C(C)CN1CCC23c4c5ccc(O)c4O[C@H]2C(=O)/C(=C/c2ccccc2)C[C@@]3(O)C1C5 (stereo partly drawn) | 6.68 | 5.35 | 5.35 | 21 | 21
13 | C=C(C)CN1CCC23c4c5ccc(OC)c4O[C@H]2c2ncc(-c4ccc(Cl)cc4)cc2C[C@@]3(O)C1C5 (stereo partly drawn) | 6.59 | < 5.22 | 5.49 | 12 | 23
14 | C=C(C)CN1CCC23c4c5ccc(OC)c4O[C@H]2c2oc4ccccc4c2C[C@@]3(O)C1C5 (stereo partly drawn) | 7.36 | < 5.22 | < 5.00 | 230 | 140
